In patent US8557331B2, “Antifouling method and composition using chromen-4-one derivatives” (The Hong Kong University of Science and Technology, priority 2008, dated 2013):
Values after ≈ are worked out from the molar mass of the structure shown.

How the values were obtained:
[1] = system: larval settlement of the barnacle Balanus amphitrite; experiment: Bioassay for antifouling activity against larval settlement (cyprids, 24-well plate, 24 h)
Protocol: (§1) The larvae were reared in freshly filtered natural seawater (FSW, 0.45 μm, 32S salinity) and fed with Chaetoceros gracilis Schutt at 24° C. in the Coastal Marine Laboratory, the Hong Kong University of Science and Technology (HKUST). Larvae that were competent to settle (called cyprids) were stored for 2 days at 8° C. prior to being used in the bioassays. Ten μl of each test sample dissolved in dimethyl sulfoxide (DMSO) were transferred into a well in 24-well polystyrene plate after the addition of 1 ml of FSW. The control wells contained 1 ml of FSW and 10 μl of DMSO. About 15 cyprids were added in each well with triplicate samples being tested.
as §1, with “freshly filtered nature seawater (FSW,” for “freshly filtered natural seawater (FSW,”, “Technology (HKUST). Cyprids (competent larvae) were stored” for “Technology (HKUST). Larvae that were competent to settle (called cyprids) were stored”, “8° C. (aged cyprids) prior to” for “8° C. prior to”

[2] = as above; details: Balanus amphitrite (barnacle, cyprid larvae), in vivo
Protocol: as §1
as §1, with “freshly filtered nature seawater (FSW,” for “freshly filtered natural seawater (FSW,”, “Technology (HKUST). Cyprids (competent larvae) were stored” for “Technology (HKUST). Larvae that were competent to settle (called cyprids) were stored”, “8° C. (aged cyprids) prior to” for “8° C. prior to”

[3] = Hydrolysis experiment of genistein (ASTM E895-89, HPLC); format: physicochemical; details: 50° C. in dark, a week
Protocol: The experiments were carried out according to the method described in ASTM (1993). Buffer solutions consisting of 20 mM of sodium acetate were prepared with adjusted pH level at 5, 7, and 9. FSW was the same as those used in bioassays. Artificial seawater (ASW) was prepared as van't Hoff formula (460 mM NaCl, 10.1 mM KCl, 9.2 mM CaCl2, 35.9 mM MgCl2, 17.5 mM MgSO4, 10 mM Tris-HCl, and pH 8.2). Test solution (900 ml) containing 4 μg genistein was divided into nine test glass tubes (100 ml each), and then the tubes were tightly capped. Immediately after preparation of the test solutions, three tubes were loaded onto a Sep-Pak tC18 ENV column (Waters, USA), preconditioned for use by eluting it with methanol and water under reduced pressure. The column after loading the test sample was eluted with water to remove any salts in the test samples, and was then eluted with 2.5 ml of DMSO. Thus, the eluate was 40 times more concentrated than the sample in the original test solution; this concentrated solution was subjected to HPLC analysis. The HPLC system (600, Waters, USA) was equipped with a photodiode array detector (996, Waters, USA) installed in tandem after outlet of the column (Phenomenex Luna 5λ C18 100A, 250×4.60 mm, 5 micron). The solvents used were (A) 5% acetonitrile and (B) 95% acetonitrile at the isocratic flow rates of (A) 0.53 ml min^−1 and (B) 0.47 ml min^−1 at 40° C., respectively. A volume of ten μl of elute was injected into the column using an autosampler (717plus, Waters, USA). The UV absorption at 1=260 nm was used for quantification. The analytical data were shown as the average value of triplicate analyses. The remaining six tubes were kept at 50° C. in the dark in an incubator for a period of four or seven days according to ASTM Procedure E895-89 (ASTM, 1993). After the incubations, each of three test samples was subjected to HPLC analysis, following the same concentration process as described above to determine the remaining concentration of genistein.

[4] = system: barnacle Balanus amphitrite; experiment: Field experiment: resin-based paint on PVC panels submerged at pier; format: in vivo
Protocol: Test compounds (genistein, Cu2O, or their mixture) were mixed with resin-based paint (Permoglaze, Akzo Nobel Decorative Coatings, Lancashire, UK) with addition of 15% of (w/w) xylene, and then sprayed on the surface of PVC panels (size: 10 cm×10 cm×0.5 cm). Genistein was incorporated into paint by 10 and 20% of the dry weight as the low and high concentrations, respectively. In the experiments of combination effects, both Cu2O and genistein at 10% of dry weight were added. The controls used was a resin based paint with addition of 15% (w/w) of xylene only. Each of the tested paints was mixed for more than 8 h before being spread onto panels. The thickness of each paint film was between 100 and 150 μm. The painted panels were air-dried completely prior to being tied to PVC frames and deployed vertically at a depth of 1-1.5 m at the pier of HKUST from March to June in 2007. The numbers of adult barnacle B. amphitrite on the surface were counted and the density on each panel was calculated after their submergences. Four replicates were tested for each sample.

[5] = Amphibalanus amphitrite, Table 2, larval settlement
[6] = Amphibalanus amphitrite, Table 2, larval settlement of Balanus amphitrite, mean ± standard deviation of at least three replicates
[7] = Table 2, LC50 used is the highest concentration causing <50% death of larvae
[8] = judged from LC50/EC50, standard of Avelin et al. (1993): nontoxic if higher than 10
[9] = single compound at 10% of dry weight of paint, three months submergence

Molecule | EC50 [1, 5] | EC50 [1, 6] | LC50/EC50 [1, 7] | toxicity (in words) ([1]; in vivo) | further results
COc1c(OC)c(O)c2c(=O)c(OC)c(-c3ccc(O)cc3)oc2c1OC [Sample F-1, 4′,5-dihydroxy-3,6,7,8 tetramethoxy-flavone] | ~3 µg/mL (≈ 8.01 µM) | 3.4 ± 0.5 µg/mL (≈ 9.08 µM) | >14.7 | almost no toxicity | 
COc1ccc(-c2coc3c(OC)c(O)ccc3c2=O)cc1 [Sample F-2, 7-hydroxy-8,4′-dimethoxyisoflavone] |  | 13.3 ± 2.5 µg/mL (≈ 44.6 µM) | >7.50 |  | 
COc1ccc(-c2oc3cc(OC)c(OC)c(O)c3c(=O)c2OC)cc1O [Sample F-3] | ~3 µg/mL (≈ 8.01 µM) | 3 ± 0.4 µg/mL (≈ 8.01 µM) | >16.7 | almost no toxicity | 
COc1cc2oc(-c3ccc(O)cc3)c(OC)c(=O)c2c(O)c1OC [Sample F-4, 4′,5,-dihydroxy-3,6,7-trimethoxy-flavone] | ~3 µg/mL (≈ 8.71 µM) | 2.5 ± 0.3 µg/mL (≈ 7.26 µM) | >20.0 | almost no toxicity | 
C[C@@H]1O[C@@H](OC[C@H]2O[C@@H](Oc3c(-c4ccc(O)c(O)c4)oc4cc(O)cc(O)c4c3=O)[C@H](O)[C@@H](O)[C@@H]2O)[C@H](O)[C@H](O)[C@H]1O [Sample F-5, neoisorutin] |  |  | >5.0 |  | EC50 ([1]; Table 2, larval settlement of Balanus amphitrite, mean ± standard deviation of at least three replicates): 40.1 ± 3.4 µg/mL (≈ 65.7 µM)
O=c1c(O)c(-c2ccc(O)cc2)oc2cc(O)cc(O)c12 [Sample F-6, kaempferol] |  | 9.6 ± 1.4 µg/mL (≈ 33.5 µM) | >5.2 |  | 
COc1ccc(-c2oc3cc(OC)cc(O)c3c(=O)c2O)cc1 [Sample F-8, 3,5-dihydroxy-7,4′-dimethoxyflavone] |  | 11.8 ± 2.1 µg/mL (≈ 37.5 µM) | >4.2 |  | 
O=c1cc(-c2ccc(O)cc2)oc2cc(O)cc(O)c12 [Sample F-9, 4′,5,7-trihydroxy-flavone] | ~3 µg/mL (≈ 11.1 µM) | 3.1 ± 0.3 µg/mL (≈ 11.5 µM) | >16.1 |  | toxicity (in words) [1, 8]: almost no toxicity
O=c1cc(-c2ccc(O)c(O)c2)oc2cc(O)cc(O)c12 [Sample F-10] | ~3 µg/mL (≈ 10.5 µM) | 3.8 ± 0.4 µg/mL (≈ 13.3 µM) |  | almost no toxicity | LC50/EC50 ([1]; Balanus amphitrite, in vivo, 24 h): >13.2
O=c1c(-c2ccc(O)cc2)coc2cc(O)cc(O)c12 [Sample F-12, 4′,5,7-trihydroxy-isoflavone] | 3 µg/mL (≈ 11.1 µM) | 3 ± 0.3 µg/mL (≈ 11.1 µM) | >16.7 |  | LC50 at 24 h [2]: > 50 µg/mL; EC50 ([1]; 24 h, genistein from Streptomyces fungicidicus, larval settlement, 24 h at 24° C., method of Rittschof et al. (1994)): 3 µg/mL (≈ 11.1 µM); concentration at which inhibitory activity against larvae settlement was observed (as low as) ([1]; FIG. 2): 0.5 µg/mL; LC50/EC50 ([1]; Table 2, genistein purified from extract of Genista tinctoria): > 16.7; larvae settled ([1]; concentration of 8 μg/ml, control 90% settlement): 10%; LC50/EC50 ([1]; genistein from Streptomyces fungicidicus): > 16.7; toxicity (in words) [1, 8]: nontoxic; genistein decomposed ([3]; artificial seawater (ASW)): ~35%; genistein decomposed ([3]; filtered natural seawater (FSW)): ~26%; genistein decomposed ([3]; pH 5.0 buffer solution): About 27%; genistein decomposed ([3]; pH 7.0 buffer solution): ~31%; genistein decomposed ([3]; pH 9.0 buffer solution): ~37%; density of barnacles fouled on the test panels ([4]; 10% of dry weight of paint, one month submergence, control 0.32 ± 0.039): 0.12 ± 0.031 adults cm^−2; density of barnacles fouled on the test panels ([4]; 10% of dry weight of paint, two months submergence, control 0.71 ± 0.053): 0.57 ± 0.055 adults cm^−2; density of barnacles fouled on the test panels ([4]; 20% of dry weight of paint, one month submergence, control 0.32 ± 0.039): 0.08 ± 0.027 adults cm^−2; density of barnacles fouled on the test panels ([4]; 20% of dry weight of paint, two months submergence, control 0.71 ± 0.053): 0.13 ± 0.029 adults cm^−2; density of barnacles fouled on the test panels [4, 9]: 0.77 ± 0.042 adults cm^−2
COc1ccc(-c2oc3c(CC=C(C)C)c(O[C@@H]4O[C@H](CO)[C@@H](O)[C@H](O)[C@H]4O)cc(O)c3c(=O)c2O[C@@H]2O[C@@H](C)[C@H](O)[C@@H](O)[C@H]2O)cc1 [Sample F-16, icariin] |  | 35.3 ± 4.2 µg/mL (≈ 52.2 µM) | >2.8 |  | 
O=c1cc(-c2ccccc2)oc2cccc(O)c12 [Sample F-17, 5-monohydroxy-flavone] | ~3 µg/mL (≈ 12.6 µM) | 2.8 ± 0.3 µg/mL (≈ 11.8 µM) | >17.9 |  | toxicity (in words) [1, 8]: almost no toxicity
Cu2O [reference compound] |  |  |  |  | density of barnacles fouled on the test panels [4, 9]: 0.81 ± 0.06 adults cm^−2
